Data set [1] in a line: Compatibility of an anionic dye alone with an aqueous CHG solution (Example 1). The data set is classed as physicochemical. The conditions noted are these: 0.13% w/v dye in distilled water, no cationic excipient; after two drops. The protocol: The compatibility of an anionic dye alone with an aqueous chlorhexidine gluconate (CHG) solution (i.e., without the addition of a cationic excipient) was tested. A 0.13% w/v anionic dye solution was prepared by dissolving 0.13 g FD&C Yellow 6 in 100 ml of distilled water. A 20% w/v aqueous CHG solution was then added drop wise to the dye solution.

Data set [2] can be described thus: Three-month room temperature storage of aqueous CHG / cationic dye solutions (Examples 7, 8). The class given is physicochemical. The conditions noted are these: 2.0% w/v CHG and 0.05% w/v dye in water. The protocol: The chemical structure and chemical category of each of these dyes are presented below. Crystal violet, malachite green, and Victoria pure blue BO all belong to the same chemical family, triarylmethane. Bismark brown and acriflavine each belong to a different chemical family, azo and acridine, respectively. [drawing 3] [drawing 4]
Aqueous solutions of 2.0% w/v CHG and 0.05% w/v dye were prepared for each of the dyes indicated above to test the stability of the solutions. Each aqueous solution was prepared using a Class A 100 ml volumetric flask, in which 0.050 grams of dye were dissolved in 30.0 ml of distilled water. Additionally, 10.6 g of 20% w/v aqueous CHG solution was added to the flask. The solution was then brought up to volume with distilled water. The solutions were stored for three months at room temperatures.
In particular, the dye tested was azure C, which is a cationic dye that belongs to the thiazin family. Its positive charge comes from a tertiary sulfur atom instead of a quaternary nitrogen atom. The chemical structure and chemical category of azure C is presented below. [drawing 5]
An aqueous solution of 2.0% w/v CHG and 0.05% w/v azure C dye was prepared to test the stability of the solution. The solution was prepared similar to the preparation of the solutions in Example 7. […]

The structures appear in SMILES notation.

Consider `O=S(=O)([O-])c1ccc(N=Nc2c(O)ccc3cc(S(=O)(=O)[O-])ccc23)cc1.[Na+].[Na+]` [FD&C Yellow 6, FD&C Yellow No. 6 (Sunset Yellow FCF)], for which the “precipitate on drop wise addition of 20% w/v aqueous CHG solution to the dye solution” value in data set [1] is listed as “precipitate was formed”.

Consider `CNc1ccc2nc3ccc(N)cc3[s+]c2c1.[Cl-]` [azure C], for which the “time solution stable and dye compatible” value in data set [2] (room temperature) is “at least three months”. Besides, the visible precipitate result in data set [2] (stored three months at room temperature) is given as “no visible precipitate”.

Values taken from patent US20080108674A1, “CATIONIC ANTISEPTIC AND DYE FORMULATION” (ENTURIA, INC., priority 2006, published 2008).
